Assay results published in patent US7579353B2, “Pyridinone derivatives against malaria” (Glaxo Group Limited, priority 2005, dated 2009).
In brackets after ≈: the same amount, converted by molar mass. Like-named read-outs stand apart in the source and are kept apart here.

What was measured:
[1] = Compound solubility determination (gross and equilibrium solubility; FaSSIF, FeSSIF, pH 7.4 PBS, pH 1.0 0.1N HCl, pH 4.5 sodium citrate); assay type: physicochemical; settings: thermodynamic from solid
Protocol: Compound Solubility Determination
An amount of 3 mg solid compound with LC-MS purity ≧95% was required. This amount was split between 3 different glass vials (1.8 ml volume each), placing 1 mg compound into each one.
Organic solvents of HPLC grade were used. Ultra pure water (Milli-Q grade) was used. Buffers were prepared with ultra pure water and filtered using 0.45μ cameo filters. The compositions of each solvent employed in this assay are described below (part III).
2. Determination of Equilibrium Solubility (Assuming Chemical Stability in the Desired Solvent is not a Problem).
For each of the three vial samples prepared as described above, in which the amount of compound was totally dissolved, the following procedure was subsequently carried out: • a) A small amount (approx. 0.1 mg) of additional solid compound was added to the vial to maintain an excess of the compound in the mixture in the form of undissolved solid. • b) The samples were magnetically stirred for 24 hr. If required, additional solid compound (0.1 mg) was added to maintain excess of it and then the samples were stirred again. • c) Then the samples were filtered (Millipore Milex filters nylon 0.2 um) and three aliquots were taken (one from each of the three vials) and analysed by LC-MS. • d) The pH of the final solution in each sample was measured with a pH-meter (WTW pH330i and a pH-electrode Sentix 41).
3. LC-MS Assay for Analytical Quantification
All filtered aliquots were analysed by LC-MS. The analysis was carried out with a Luna 5 μC18 (2) column 4.6×150 mm, using a HP1100 HPLC instrument interfaced with a Waters ZMD-2000 MS spectrometer. The concentration of the final sample as prepared above was calculated from that of a reference calibration curve obtained from serial dilutions of a 2 mM solution of the compound under investigation in DMSO (Aldrich cat. ref.: 27685-5) stock solution.
The analysis of all LC-MS data was performed with MassLynx 3.4 software. Statistical and graphic analysis of data was performed using Microsoft Excel. The concentration (uM) and solubility (ug/ml) for each compound was calculated using the peak areas from the sample and those from the calibration curve.
A) FaSSIF is a solvent which simulates the Fasted State of the Intestinal Fluid. (FaSSIF: Fasted State Simulated Intestinal Fluid).
B) FeSSIF is a solvent which simulates the Fed State of the Intestinal Fluid. (FeSSIF: Fed State Simulated Intestinal Fluid).
C) Solubility at pH 7.4 was determined in phosphate buffered saline (PBS) (Fluka cat. ref: 79383)
D) Solubility at pH 1.0 was determined in 0.1N HCl solution (Scharlau AL0744010C)
E) Solubility at pH 4.5 was determined in sodium citrate 0.5M solution. (Aldrich 25, 127-5)

Plasmodium falciparum = assay: In vitro anti-malarial activity against Plasmodium falciparum, IC50 assay / [3H]-hypoxanthine incorporation assay; assay type: cell-based; settings: Erythrocyte, parasitized red blood cells, 48 hours
Protocol: In Vitro Anti-malarial Activity Against Plasmodium falciparum
IC50 Assay/[^3H]-Hypoxanthine Assay
Plasmodium falciparum strains.
The culture medium comprised RPMI 1640 with 25 mM HEPES, sodium bicarbonate and glutamine (GIBCO™ cat. ref.: 52400), supplemented with 10% of pooled human sera AB (Irvine Scientific, cat. ref.: 5009) and HT supplement (0.15 mM hypoxanthine and 24 μM thymidine), (GIBCO™ cat. ref.: 41065). Human sera were decomplemented 30 min. at 56° C., aliquoted and stored frozen at −20° C. until use in this culture medium.
Red blood cells O+ stock suspensions were prepared from whole blood bags coming from incomplete blood donation, provided by the Spanish Red Cross (<25 days after sampling). This “whole blood” was aliquoted and stored at 4° C.
To prepare red blood cells for the assay, the whole blood was centrifuged and washed 3 times with RPMI without serum. The upper phase, containing white blood cells was removed. The washed red blood cells were kept as a 50% suspension in complete medium. The prepared cells were stored at 4° C. and were employed in the assay at any time up to 4 days after preparation.
Test compounds were dissolved at 2 mg/ml in 100% DMSO on the day of the assay. If necessary, complete dissolution was achieved by gentle heating (the mixture was heated at a temperature <37° C.) and sonication (sonication bath).
For IC50 determinations, 10 serial 2-fold dilutions were prepared in complete medium in the presence of a constant amount of DMSO.
Plasmodium falciparum strains were maintained in complete medium at an hematocrit of 5% in continuous culture using a method adapted from Trager and Jensen (1, 2).
The parasitemia was calculated by counting the percentage of parasitized erythrocytes by optical microscopy. Thin films of blood were made every day from each culture flask, fixed with methanol and stained for 10 min. in Giemsa (Merck, cat ref.: 1.09204) at 10% in buffered water pH 7.2. The glass slides were observed and counted with an optical microscope (Nikon, Eclipse E200) equipped with a 100× immersion oil objective.
The culture was maintained at an hematocrit of 5%, with a daily change of medium and was diluted when parasitemia had reached about 5%.
[^3H] Hypoxanthine incorporation assay was conducted using a method adapted from Desjardins et al. (3). The assays were performed in 96 wells flat bottom microplates.
1. Serial dilutions of the test compounds (50 μl of a 5× solution/well) were deposited in duplicate. Compounds of the invention were tested in this assay. Chloroquine and Atovaquone were used as control compounds for each assay.
3. [^3H]-Hypoxanthine (Amersham Biosciences, cat. ref.: TRK74) was added extemporaneously to the inoculum suspension at a concentration of 1 μCi/ml (equating to […]). 200 μl of the resulting suspension was distributed into each well (other than the control well H12 described below) leading to a final volume of 250 μl per well, at 2% of hematocrit and 0.5% of parasitemia/well.
4. In each plate, 2 columns were reserved for control wells: • Column 11: Positive control wells: PRBCs with 0.2% DMSO—(i) to determine DMSO solvent effect on parasite growth (at a final concentration of 0.2%) and (ii) to compare with cultures treated with test compounds. • Column 12 (comprising wells A12-H12): • A12-D12—Background value wells: Uninfected RBCs—blank control to obtain the background reading from RBCs without parasites. • E12-G12—Solvent effect wells: PRBCs without DMSO—to determine DMSO solvent effect on PRBCs by comparing these wells with column 11 wells. • H12-Non-radioactive well: PRBCs with cold hypoxanthine—(i) to carry out a thin blood film to determine parasitemia value after incubation by microscopy and (ii) to ensure that the parasites have grown properly during the assay. (200 μl of inoculum suspension was prepared as described above (Items 2 and 3) but with non-tritiated hypoxanthine instead of [3H]-hypoxanthine, then added to this well to a final volume of 250 μl). […]

[2] = 0.1N HCl solution, simulated gastric fluid, pH 1 (HCl), read-out: Solubility at pH 1 (HCl)
[3] = FaSSIF (fasted state simulated intestinal fluid), fassif, read-out: Solubility in FaSSIF
[4] = phosphate buffered saline (PBS), aqueous buffer, pH 7.4 (PBS), read-out: Solubility at pH 7.4 (PBS)
[5] = sodium citrate 0.5M solution, aqueous buffer, pH 4.5 (Na citrate), read-out: Solubility at pH 4.5 (Na citrate)
[6] = FeSSIF (fed state simulated intestinal fluid), fessif, read-out: Solubility in FeSSIF

Row | SMILES | solubility at 24 h ([1]; aqueous buffer, pH 4.5 (Na citrate), read-out: Solubility at pH 4.5 (Na citrate)) | solubility at 24 h ([1]; aqueous buffer, pH 7.4 (PBS), read-out: Solubility at pH 7.4 (PBS)) | solubility at 24 h ([1]; fassif, read-out: Solubility in FaSSIF) | solubility at 24 h ([1]; fessif, read-out: Solubility in FeSSIF) | solubility at 24 h ([1]; simulated gastric fluid, pH 1 (HCl), read-out: Solubility at pH 1 (HCl)) | IC50 (Plasmodium falciparum) | solubility at 24 h [1, 2] | solubility at 24 h [1, 3] | solubility at 24 h [1, 4] | solubility at 24 h [1, 5] | solubility at 24 h [1, 6]
1 | CCCCCCCCCc1cnc(-c2c(C)[nH]c(C)c(Cl)c2=O)nc1 [Example 50, 3-Chloro-2,6-dimethyl-5-(5-nonyl-2-pyrimidinyl)-4(1H)-pyridinone] | < 1 µg/mL | < 1 µg/mL | < 1 µg/mL | 1 to 5 µg/mL (≈ 2.76 to 13.8 µM) | 5 to 10 µg/mL (≈ 13.8 to 27.6 µM) | < 0.125 µg/mL |  |  |  |  | 
2 | CCCCCCCc1ccc(-c2c(C)[nH]c(C)c(Cl)c2=O)cn1.Cl [Example 48, 5-Chloro-6′-(n-heptyl)-2,6-dimethyl-3,3′-bipyridin-4(1H)-one] |  |  |  |  |  | < 0.125 µg/mL | ≥ 50 µg/mL | 10 to 50 µg/mL | 1 to 5 µg/mL | ≥ 50 µg/mL | 
3 | Cc1[nH]c(C)c(-c2ccc(CCc3ccc(C(F)(F)F)cc3)nc2)c(=O)c1Cl [Example 45, 5-Chloro-2,6-dimethyl-6′-{2-[4-(trifluoromethyl)phenyl]ethyl}-3,3′-bipyridin-4(1H)-one] |  |  |  |  |  | < 0.125 µg/mL | ≥ 50 µg/mL | 10 to 50 µg/mL (≈ 24.6 to 123 µM) | 5 to 10 µg/mL (≈ 12.3 to 24.6 µM) | 10 to 50 µg/mL (≈ 24.6 to 123 µM) | 
4 | Cc1[nH]c(C)c(-c2ccc(-c3cccc(C(F)(F)F)c3)nc2)c(=O)c1Br [Example 17, 5-Bromo-2,6-dimethyl-6′-{3-[trifluoromethyl]phenyl}-3,3′-bipyridin-4(1H)-one] |  |  |  |  |  | < 0.125 µg/mL | ≥ 50 µg/mL | 1 to 5 µg/mL (≈ 2.36 to 11.8 µM) | < 1 µg/mL | < 1 µg/mL | 
5 | Cc1[nH]c(C)c(-c2ccc(-c3ccccc3C(F)(F)F)nc2)c(=O)c1Br [Example 18, 5-Bromo-2,6-dimethyl-6′-{2-[trifluoromethyl]phenyl}-3,3′-bipyridin-4(1H)-one] |  |  |  |  |  | < 0.125 µg/mL | ≥ 50 µg/mL | 10 to 50 µg/mL (≈ 23.6 to 118 µM) | 10 to 50 µg/mL (≈ 23.6 to 118 µM) | 10 to 50 µg/mL (≈ 23.6 to 118 µM) | 
6 | Cc1[nH]c(C)c(-c2ccc(CCc3cccc(C(F)(F)F)c3)nc2)c(=O)c1Cl [Example 44, 5-Chloro-2,6-dimethyl-6′-{2-[3-(trifluoromethyl)phenyl]ethyl}-3,3′-bipyridin-4(1H)-one] |  |  |  |  |  | < 0.125 µg/mL | ≥ 50 µg/mL | 10 to 50 µg/mL (≈ 24.6 to 123 µM) | 1 to 5 µg/mL (≈ 2.46 to 12.3 µM) | 10 to 50 µg/mL (≈ 24.6 to 123 µM) | 
7 | Cc1[nH]c(C)c(-c2ccc(-c3ccccc3F)nc2)c(=O)c1Br [Example 23, 5-Bromo-6′-(2-fluorophenyl)-2,6-dimethyl-3,3′-bipyridin-4(1H)-one] |  |  |  |  |  | < 0.125 µg/mL | ≥ 50 µg/mL | 1 to 5 µg/mL (≈ 2.68 to 13.4 µM) | 1 to 5 µg/mL (≈ 2.68 to 13.4 µM) | 5 to 10 µg/mL (≈ 13.4 to 26.8 µM) | 
8 | Cc1[nH]c(C)c(-c2ccc(-c3ccc(Cl)cc3)nc2)c(=O)c1Br [Example 19, 5-Bromo-6′-(4-chlorophenyl)-2,6-dimethyl-3,3′-bipyridin-4(1H)-one] |  |  |  |  |  | < 0.125 µg/mL | 10 to 50 µg/mL (≈ 25.7 to 128 µM) | 1 to 5 µg/mL (≈ 2.57 to 12.8 µM) | 1 to 5 µg/mL (≈ 2.57 to 12.8 µM) | 1 to 5 µg/mL (≈ 2.57 to 12.8 µM) | 5 to 10 µg/mL (≈ 12.8 to 25.7 µM)
9 | Cc1[nH]c(C)c(-c2ccc(-c3cc(C(F)(F)F)ccc3Cl)nc2)c(=O)c1Cl [Example 57, 5-chloro-6′-[2-chloro-5-(trifluoromethyl)phenyl]-2,6-dimethyl-3,3′-bipyridin-4(1H)-one] |  |  |  |  |  | < 0.125 µg/mL | ≥ 50 µg/mL | 5 to 10 µg/mL (≈ 12.1 to 24.2 µM) | < 1 µg/mL | < 1 µg/mL | 10 to 50 µg/mL (≈ 24.2 to 121 µM)
10 | Cc1[nH]c(C)c(-c2ccc(-c3ccc(F)cc3)nc2)c(=O)c1Br [Example 22, 5-Bromo-6′-(4-fluorophenyl)-2,6-dimethyl-3,3′-bipyridin-4(1H)-one] |  |  |  |  |  | < 0.125 µg/mL | ≥ 50 µg/mL | 1 to 5 µg/mL (≈ 2.68 to 13.4 µM) | 1 to 5 µg/mL (≈ 2.68 to 13.4 µM) | 1 to 5 µg/mL (≈ 2.68 to 13.4 µM) | 
11 | Cc1[nH]c(C)c(-c2ccc(-c3ccc(F)cc3)nc2)c(=O)c1Cl [Example 36, 5-Chloro-6′-(4-fluorophenyl)-2,6-dimethyl-3,3′-bipyridin-4(1H)-one] |  |  |  |  |  | < 0.125 µg/mL | ≥ 50 µg/mL | 1 to 5 µg/mL (≈ 3.04 to 15.2 µM) | 1 to 5 µg/mL (≈ 3.04 to 15.2 µM) | 1 to 5 µg/mL (≈ 3.04 to 15.2 µM) | 
12 | Cc1[nH]c(C)c(-c2ccc(-c3ccc(C(F)(F)F)cc3)nc2)c(=O)c1Br [Example 16, 5-Bromo-2,6-dimethyl-6′-{4-[trifluoromethyl]phenyl}-3,3′-bipyridin-4(1H)-one] |  |  |  |  |  | < 0.125 µg/mL | 10 to 50 µg/mL (≈ 23.6 to 118 µM) | < 1 µg/mL | < 1 µg/mL | < 1 µg/mL | 
